A short description of test [1]: Cytotoxicity against mouse BMDM cells after 72 hrs by MTT assay. Type of test: cell-based.
The subject of test [2] is Staphylococcus aureus. Kind of test: Antibacterial activity against methicillin-sensitive Staphylococcus aureus ATCC 6538P by broth microdilution method. Type of test: functional.
Test [3] relates to Staphylococcus aureus. Kind of test: Antibacterial activity against methicillin-sensitive Staphylococcus aureus ATCC 25923 by broth microdilution method. Type of test: functional.
For test [4], the system named is Staphylococcus aureus. Kind of test: Antibacterial activity against methicillin-sensitive Staphylococcus aureus ATCC 29213 by broth microdilution method. Type of test: functional.
In test [5] the test system is Staphylococcus aureus. Kind of test: Antibacterial activity against methicillin-resistant Staphylococcus aureus isolate L1400 by broth microdilution method. The class given is functional.
Test [6] concerns Staphylococcus aureus. Description: Antibacterial activity against glycopeptide-intermediate Staphylococcus aureus isolate L3798 by broth microdilution method. The class given is functional.
Test [7] deals with Staphylococcus aureus. Kind of test: Antibacterial activity against glycopeptide-intermediate,methicillin-resistant Staphylococcus aureus isolate L3797 by broth microdilution method. Type of test: functional.
Test [8] concerns Staphylococcus haemolyticus. Description: Antibacterial activity against methicillin-resistant Staphylococcus haemolyticus isolate L1729 by broth microdilution method. The class given is functional.
Test [9] relates to Staphylococcus haemolyticus. Description: Antibacterial activity against methicillin-sensitive Staphylococcus haemolyticus isolate L1730 by broth microdilution method. Type of test: functional.
Test [10] has as its system Streptococcus pneumoniae. Kind of test: Antibacterial activity against Streptococcus pneumoniae BAA1402 expressing MefE efflux pump by broth microdilution method. The class given is functional.
The test system of the next test is Streptococcus pyogenes. Kind of test: Antibacterial activity against Streptococcus pyogenes isolate L49 by broth microdilution method. The class given is functional.
Test [11] deals with Enterococcus faecalis. Description: Antibacterial activity against vancomycin-sensitive Enterococcus faecalis isolate L559 by broth microdilution method. Type of test: functional.
Test [12] deals with Enterococcus faecalis. Kind of test: Antibacterial activity against vancomycin-resistant Enterococcus faecalis isolate L560 by broth microdilution method. Type of test: functional.
In test [13] the test system is Enterococcus faecium. Description: Antibacterial activity against vancomycin-sensitive Enterococcus faecium isolate L568 by broth microdilution method. Type of test: functional.
In test [14] the test system is Enterococcus faecium. Description: Antibacterial activity against vancomycin-resistant Enterococcus faecium isolate L569 by broth microdilution method. Type of test: functional.
The nature of a further test: cells. As to conditions: Homo sapiens, HMEC-1, 72 h.
Test [15] has as its system Streptococcus pneumoniae. Description: Antibacterial activity against penicillin-sensitive Streptococcus pneumoniae isolate L44 by broth microdilution method.
Another test relates to Candida albicans. Kind of test: Antifungal activity against Candida albicans. The class given is functional, organism-based.

Converted amounts (≈) assume the structure as drawn. The source made the active and inactive calls. The rule behind the calls is not given here.

Description for cells: Cytotoxicity against human HMEC1 cells after 72 hrs by MTT assay

Take `CC[C@H]1C[C@@]23OC(=O)C(=C2O)C(=O)[C@]2(CC)[C@@H](C=C[C@@H]4[C@@H](O[C@H]5C[C@@H](O)[C@H](NC(=O)c6[nH]c(Cl)c(Cl)c6Cl)[C@@H](C)O5)[C@@H](C)CC[C@@H]42)CCCC/C=C/[C@@]3(C)C=C1C(=O)O`: the 50% inhibitory concentration (IC50) in test [1] is 47 µM; in “cells”, 2 µM. Moreover, the MIC turned out to be 2 µg/mL (≈ 2.28 µM) against Staphylococcus aureus [2]; 2 µg/mL (≈ 2.28 µM) in the test with Staphylococcus aureus [3]; 2 µg/mL (≈ 2.28 µM) against Staphylococcus aureus [4]; 4 µg/mL (≈ 4.55 µM) in the test on Staphylococcus aureus [5]; 4 µg/mL (≈ 4.55 µM) in the test with Staphylococcus aureus [6]; 4 µg/mL (≈ 4.55 µM) with Staphylococcus aureus [7]. The MIC in test [8] was 4 µg/mL (≈ 4.55 µM); in test [9], 4 µg/mL (≈ 4.55 µM); in the test with Streptococcus pneumoniae [10], above 128 µg/mL; against Streptococcus pyogenes it was 8 µg/mL (≈ 9.11 µM); against Enterococcus faecalis [11], 2 µg/mL (≈ 2.28 µM); in the test on Enterococcus faecalis [12] it was 2 µg/mL (≈ 2.28 µM). Further, the figures for the MIC against Enterococcus faecium [13], against Enterococcus faecium [14] and with Streptococcus pneumoniae [15] were 16 µg/mL (≈ 18.2 µM), 8 µg/mL (≈ 9.11 µM) and 8 µg/mL (≈ 9.11 µM), respectively.
With `CN[C@H](CC(C)C)C(=O)N[C@H]1C(=O)N[C@@H](CC(N)=O)C(=O)N[C@H]2C(=O)N[C@H]3C(=O)N[C@H](C(=O)N[C@H](C(=O)O)c4cc(O)cc(O)c4-c4cc3ccc4O)[C@H](O)c3ccc(c(Cl)c3)Oc3cc2cc(c3O[C@@H]2O[C@H](CO)[C@@H](O)[C@H](O)[C@H]2O[C@H]2C[C@](C)(N)[C@H](O)[C@H](C)O2)Oc2ccc(cc2Cl)[C@H]1O` [VANCOMYCIN], the MIC against Staphylococcus aureus [6] was 8 µg/mL (≈ 5.52 µM); in the test with Staphylococcus aureus [7], above 128 µg/mL; in test [8], 2 µg/mL (≈ 1.38 µM); in [9], 1 µg/mL (≈ 0.69 µM); in the test on Streptococcus pneumoniae [10], 4 µg/mL (≈ 2.76 µM); against Streptococcus pyogenes, 1 µg/mL (≈ 0.69 µM). The MIC with Enterococcus faecalis [11] is 1 µg/mL (≈ 0.69 µM); against Enterococcus faecalis [12] it was above 128 µg/mL; in the test on Enterococcus faecium [14] it was above 128 µg/mL; against Streptococcus pneumoniae [15] it was 0.5 µg/mL (≈ 0.345 µM).
`COc1cccc2c1C(=O)c1c(O)c3c(c(O)c1C2=O)C[C@@](O)(C(=O)CO)C[C@@H]3O[C@H]1C[C@H](N)[C@H](O)[C@H](C)O1` [DOXORUBICIN]: the results for the concentration for half-maximal inhibition (IC50) (in test [1]; in the test “cells”) were 4.6 µM and 0.06 µM, respectively.
With `CC[C@H]1C[C@@]23OC(=O)C(=C2O)C(=O)[C@]2(CC)[C@@H](C=C[C@@H]4[C@@H](O[C@H]5C[C@@H](O)[C@H](NC(=O)c6[nH]ccc6Br)[C@@H](C)O5)[C@@H](C)CC[C@@H]42)CCCC/C=C/[C@@]3(C)C=C1C(=O)O`, the values for the 50% inhibitory concentration (IC50) (in test [1]; in “cells”) were 143 µM and 43 µM, respectively. For the same compound, the MIC against Staphylococcus aureus [4] is 2 µg/mL (≈ 2.34 µM); in the test on Staphylococcus aureus [5] it was 4 µg/mL (≈ 4.68 µM); with Streptococcus pyogenes it was 4 µg/mL (≈ 4.68 µM); in the test with Enterococcus faecalis [11], 16 µg/mL (≈ 18.7 µM); with Enterococcus faecalis [12], 16 µg/mL (≈ 18.7 µM); against Enterococcus faecium [13] it was 64 µg/mL (≈ 75 µM). Further, the MIC came out at 64 µg/mL (≈ 75 µM) against Enterococcus faecium [14] and 8 µg/mL (≈ 9.37 µM) against Streptococcus pneumoniae [15].
Regarding `CC[C@H]1C[C@@]23OC(=O)C(=C2O)C(=O)[C@]2(CC)[C@@H](C=C[C@@H]4[C@@H](O[C@H]5C[C@@H](O)[C@H](NC(=O)c6[nH]c(Cl)cc6Cl)[C@@H](C)O5)[C@@H](C)CC[C@@H]42)CCCC/C=C/[C@@]3(C)C=C1C(=O)O`, the concentration for half-maximal inhibition (IC50) came out at 50 µM in [1] and 9 µM in “cells”. Further, the MIC stood at 0.5 µg/mL (≈ 0.593 µM) in the test on Staphylococcus aureus [2]; 0.5 µg/mL (≈ 0.593 µM) in the test on Staphylococcus aureus [3]; 0.25 µg/mL (≈ 0.296 µM) in the test on Staphylococcus aureus [4]; 1 µg/mL (≈ 1.19 µM) with Staphylococcus aureus [5]; 1 µg/mL (≈ 1.19 µM) in the test with Staphylococcus aureus [6]; 0.5 µg/mL (≈ 0.593 µM) against Staphylococcus aureus [7]. The MIC in test [8] is 1 µg/mL (≈ 1.19 µM); in test [9] it was 1 µg/mL (≈ 1.19 µM); with Streptococcus pneumoniae [10], 64 µg/mL (≈ 75.8 µM); against Streptococcus pyogenes it was 2 µg/mL (≈ 2.37 µM); in the test with Enterococcus faecalis [11], 0.5 µg/mL (≈ 0.593 µM); in the test with Enterococcus faecalis [12] it was 0.5 µg/mL (≈ 0.593 µM). The MIC against Enterococcus faecium [13] was found to be 8 µg/mL (≈ 9.48 µM); with Enterococcus faecium [14], 4 µg/mL (≈ 4.74 µM); in the test with Streptococcus pneumoniae [15], 4 µg/mL (≈ 4.74 µM). Moreover, in the test on Candida albicans, the result was inactive.
Take `CC[C@H]1C[C@@]23OC(=O)C(=C2O)C(=O)[C@]2(CC)[C@@H](C=C[C@@H]4[C@@H](O[C@H]5C[C@@H](O)[C@H](NC(=O)c6[nH]cc(Br)c6Br)[C@@H](C)O5)[C@@H](C)CC[C@@H]42)CCCC/C=C/[C@@]3(C)C=C1C(=O)O`: the IC50 in test [1] was determined as 109 µM; in the test “cells” it was 3 µM. Further, the MIC with Staphylococcus aureus [4] stood at 8 µg/mL (≈ 8.58 µM); against Staphylococcus aureus [5], 16 µg/mL (≈ 17.2 µM); in the test with Streptococcus pyogenes it was 1 µg/mL (≈ 1.07 µM); in the test with Enterococcus faecalis [11], 32 µg/mL (≈ 34.3 µM); against Enterococcus faecalis [12], 16 µg/mL (≈ 17.2 µM); against Enterococcus faecium [13], 32 µg/mL (≈ 34.3 µM). Besides, the minimum inhibitory concentration (MIC) was found to be 32 µg/mL (≈ 34.3 µM) in the test on Enterococcus faecium [14] and 8 µg/mL (≈ 8.58 µM) against Streptococcus pneumoniae [15].

The values above are taken from ChEMBL document CHEMBL2062522, “Halogenated spirotetronates from Actinoallomurus” (J Nat Prod, 2012).
